Data from patent publication US4499093A, “Interferon induction method” (Dso "Pharmachim", priority 1982, dated 1985).
Several values for one entry are separate records, joined by “and”; a condition that tells them apart may be missing. Equal entries are not always repeated. Structures can show the parent of a compound that is named as a salt.

How the values were obtained:
[1] = internal / in vivo, background; cited from earlier work
[2] = tested on: Mouse peritoneal leucocytes; assay: cells; conditions: Leucocyte, read-out: MinIFN-IC (minimum interferon-inducing concentration)
Procedure: (§1) In monolayer cellular cultures (L-cells, mouse embryonal fibroblasts, human diploid embryonal pulmonary fibroblasts), the interferon titre is measured and the antiviral resistance is simultaneously determined. […] Incubation of the cultures is carried out for 24 hours at 37° C.; The culture medium after determining its cytotoxicity microscopically is collected for the interferon titre measurement. The cells are rinsed in Hanks' saline solution and inoculated by 100 TCID50 virus of the vesicular stomatite (Indiana strain). The cytopathic effect and the infectious virus yield are specified the basis of which the state of the antiviral resistancy is determined.
(§2) The interferon titre is determined as follows: by the plaque-inhibition method in L-cells or in human embryonal diploid fibroblasts using the vesicular stomatite virus (Indiana strain) by a detector virus; by the cytopathic effect inhibition method of the same virus (using human embryonal diploid fibroblasts). It is expressed in IU/ml by comparing the reference preparations of mouse or human interferon.

serum interferon [3] = assay: serum interferon titre in human volunteers; parameters: average geometrical interferon titre: dose or concentration left out as unconfirmed
Procedure: as §2

[4] = tested on: Human diploid embryonal fibroblasts
Procedure: as §1, §2

serum interferon [5] = assay: interferon-inducing activity in vivo in white mice (serum interferon titre)
Procedure: Serum samples for measuring the interferon titre are taken on the 6th, 12th, 24th, 48th, 72nd and 96th hour (mixed serum sample of minimum 8 animals).
as §2

[6] = tested on: Human diploid embryonal fibroblasts; assay: cells; conditions: Fibroblast, read-out: MinIFN-IC (minimum interferon-inducing concentration)
Procedure: as §1, §2

Herpes simplex 1 virus = tested on: Herpes simplex 1 virus; parameters: species or system white mice; conditions: mouse, in vivo
influenza virus A = influenza virus A experimental infection in white mice; assay type: in vivo; conditions: oral or intraperitoneal single dose 24 h before, 24 or 72 h after inoculation
L-cells [7] = tested on: L-cells
Procedure: as §1, §2

L-cells [8] = assay: cells; conditions: Mus musculus, read-out: MinIFN-IC (minimum interferon-inducing concentration)
Procedure: as §1, §2

Semliki virus = tested on: Semliki virus; parameters: species or system white mice; conditions: mouse, in vivo
[9] = tested on: some DNA and RNA-containing viruses; conditions: cellular cultures, background; cited from earlier work
acute toxicity (LD50) = assay: acute toxicity (LD50); parameters: species or system white mice; conditions: mouse, in vivo; intravenous; read-out: single LD50
[10] = tested on: Mouse peritoneal leucocytes
Procedure: as §1, §2

[11] = tested on: Mouse embryonal fibroblasts; assay: interferon induction in mouse embryonal fibroblasts
Procedure: as §1, §2

[12] = intravenous, 0.1 mg/kg, 48th hour

poly I:C
toxicity [1]: toxic internally

OCCN(CCO)c1nc(N2CCCCC2)c2nc(N(CCO)CCO)nc(N3CCCCC3)c2n1 [Dipyridamole, 2,6-bis (diethanolamino)-4,8-dipiperidinopyramido [5,4-d]pyrimidine]
minimal effective concentration [2]: 3 µM
Mean serum interferon titre, positive responders (serum interferon [3]; 0 hours after administration (baseline)): 5.2 ± 1.7 IU/ml
subjects with marked raising of serum interferon level (serum interferon [3]; 100 mg single oral dose, 20 men and women, 24th and 48th hour): 80%
Mean serum interferon titre, positive responders (serum interferon [3]; 24-48 hours after administration): 1069.0 ± 479.7 IU/ml
increase of average geometrical interferon titres vs initial level (serum interferon [3]; 24-48 hours, oral): Over 200 time
average geometrical interferon titre (serum interferon [3]; 24-48 hours, oral single doses as printed): 1069.0±479.7 IU/ml
average geometrical interferon titre, initial level (serum interferon [3]; initial level before dipyridamole): 5.2±1.7 IU/ml
treated subjects with marked interferon production (serum interferon [3]; oral, single doses (1-2 mg/kg)): 80%
Maximum interferon titre [4]: 16-32
OptINF-IC (optimum interferon-inducing concentration) [4]: 100-300 micromol/1
preservation of high serum interferon levels (serum interferon [5]; even 96 hours after administration): relatively continuous preservation of the high interferon levels
time of peak interferon levels (serum interferon [5]; intraperitoneal, 16.7 mg/kg): 24 to 48 h
maximum titres / peak levels (serum interferon [5]; intraperitoneal, 16.7 mg/kg, 24-48th hour): 256 IU/ml
interferon concentrations until the 120th hour (serum interferon [5]; intraperitoneal, 16.7 mg/kg, until 120th hour): Marked concentrations
interferon-inducing activity of lower doses (serum interferon [5]; intraperitoneal, lower doses, under 0.1 mg/kg inclusive): lower but better marked activity
effective doses (serum interferon [5]; intraperitoneal, "or more"): 0.1 to 16.7 mg/kg
effective doses (serum interferon [5]; intravenous): 0.01 to 50 mg/kg
Interferon titre in serum (serum interferon [5]; intravenous, 0.01 mg/kg, 72nd hour): 16 IU/ml
Interferon titre in serum (serum interferon [5]; intravenous, 0.05 mg/kg, 24th hour): < 4 IU/ml
Interferon titre in serum (serum interferon [5]; intravenous, 0.05 mg/kg, 48th hour): 64 IU/ml
Interferon titre in serum (serum interferon [5]; intravenous, 0.05 mg/kg, 72nd hour): 32 IU/ml
Interferon titre in serum (serum interferon [5]; intravenous, 0.1 mg/kg, 6th hour): ≤ 4 IU/ml
Interferon titre in serum (serum interferon [5]; intravenous, 0.1 mg/kg, 12th hour): ≤ 4 IU/ml
Interferon titre in serum (serum interferon [5]; intravenous, 0.1 mg/kg, 24th hour): ≤ 4 IU/ml
Interferon titre in serum (serum interferon [5]; [12]): 128 IU/ml
maximum titres (serum interferon [5]; [12]): 128 IU/ml
Interferon titre in serum (serum interferon [5]; intravenous, 0.1 mg/kg, 72nd hour): 32 IU/ml
Interferon titre in serum (serum interferon [5]; intravenous, 0.2 mg/kg, 24th hour): ≤ 4 IU/ml
Interferon titre in serum (serum interferon [5]; intravenous, 0.2 mg/kg, 48th hour): 32 IU/ml
Interferon titre in serum (serum interferon [5]; intravenous, 0.2 mg/kg, 72nd hour): 32 IU/ml
Interferon titre in serum (serum interferon [5]; intravenous, 0.6 mg/kg, 6th hour): < 4 IU/ml
Interferon titre in serum (serum interferon [5]; intravenous, 0.6 mg/kg, 12th hour): 8 IU/ml
Interferon titre in serum (serum interferon [5]; intravenous, 0.6 mg/kg, 24th hour): 32 IU/ml
Interferon titre in serum (serum interferon [5]; intravenous, 0.6 mg/kg, 48th hour): 16 IU/ml
Interferon titre in serum (serum interferon [5]; intravenous, 0.6 mg/kg, 72nd hour): 16 IU/ml
Interferon titre in serum (serum interferon [5]; intravenous, 1.8 mg/kg, 12th hour): 16 IU/ml
Interferon titre in serum (serum interferon [5]; intravenous, 1.8 mg/kg, 24th hour): 16 IU/ml
Interferon titre in serum (serum interferon [5]; intravenous, 1.8 mg/kg, 72nd hour): 8 IU/ml
Interferon titre in serum (serum interferon [5]; intravenous, 5.5 mg/kg, 12th hour): 16 IU/ml
Interferon titre in serum (serum interferon [5]; intravenous, 5.5 mg/kg, 24th hour): 16 IU/ml
Interferon titre in serum (serum interferon [5]; intravenous, 17.7 mg/kg, 12th hour): 32 IU/ml
Interferon titre in serum (serum interferon [5]; intravenous, 17.7 mg/kg, 24th hour): 16 IU/ml
Interferon titre in serum (serum interferon [5]; intravenous, 50.0 mg/kg, 12th hour): 8 IU/ml
Interferon titre in serum (serum interferon [5]; intravenous, 50.0 mg/kg, 24th hour): 8(4) IU/ml
time of maximum interferon levels (serum interferon [5]; intravenous, higher doses than 0.1 mg/kg): 12 to 24 h
time of maximum titres (serum interferon [5]; oral): 24 to 48 h
serum interferon level at 12th hour (serum interferon [5]; oral, 6.25-100 mg/kg, 12th hour): 128-256 IU/ml
peak serum interferon values (serum interferon [5]; oral, 12.5 or 25 mg/kg, 48th hour): 4096-8192 IU/ml
maximum serum interferon titres (serum interferon [5]; oral, 24-48 hour): 4096-8192 IU/ml
interferon levels at 120th hour (serum interferon [5]; oral): marked interferon levels in the blood
interferon levels at 120th hour (serum interferon [5]; oral, listed as dipyridamole): higher than those in the control (placebo) group
serum interferon level at 12th hour (serum interferon [5]; oral, single doses, 12th hour): 128-256 IU/ml
minimal effective concentration [6]: 10 µM
Lethality % M ± m (Herpes simplex 1 virus): 55.0 ± 11.41%
Lethality No. (Herpes simplex 1 virus): 11/20
Mean survival time (Herpes simplex 1 virus): 17.3 ± 2.64 days
Protection coefficient (Herpes simplex 1 virus): 1.81
antiviral effect in oral application vs intraperitoneal (Herpes simplex 1 virus): much stronger
protective effect (Herpes simplex 1 virus): marked protective effect
t (Herpes simplex 1 virus): 3.94
protective effect (influenza virus A): marked protective effect
Maximum interferon titre (L-cells [7]): ≥ 128 IU/ml
OptINF-IC (optimum interferon-inducing concentration) (L-cells [7]): 30-300 micromol/1
induced interferon titre (L-cells [7]): over 128 IU/ml
induced interferon titres (L-cells [7]): exceed 128 IU/ml
interferon production compared with poly I:C (L-cells [7]): markedly exceeds the interferon production of poly I:C
minimal effective concentration (L-cells [8]): 10 µM
Lethality % M ± m (Semliki virus): 30.0 ± 15.27% and 40.0 ± 16.32%
Lethality No. (Semliki virus): 3/10 and 4/10
Mean survival time (Semliki virus): 22.6 ± 3.77 days and 20.7 ± 3.82 days
Protection coefficient (Semliki virus): 2.4 and 1.8
antiviral effect in oral application vs intraperitoneal (Semliki virus): much stronger
protective effect (Semliki virus): marked protective effect
t (Semliki virus): 3.02 and 2.64
antiviral effect in in vitro testing [9]: antiviral effect
LD50 (acute toxicity (LD50)): 150 mg/kg
Maximum interferon titre [10]: ≥ 256 IU/ml
OptINF-IC (optimum interferon-inducing concentration) [10]: 100-1000
interferon titre compared with double-stranded RNA of phage f2 [10]: higher than that induced by double-stranded RNA of phague f2 of E. coli
optimum interferon-inducing concentration [10]: 100 µM
OptINF-IC (optimum interferon-inducing concentration) [11]: 300 micromol/1
minimal effective concentration ([11]; Mus musculus, Fibroblast, read-out: MinIFN-IC (minimum interferon-inducing concentration)): 100 µM
Maximum interferon titre ([11]; induced by OptINF-IC): 16 IU/ml

CCN(CC)CCOc1ccc2c(c1)C(=O)c1cc(OCCN(CC)CC)ccc1-2 [tilorone-hydrochloride]
toxicity [1]: toxic and unsuitable for clinical application
